Peptide text beside a SMILES is read from it.
Assays:
blood insulin levels = test: Arginine-induced changes in blood insulin in rats (radioimmunoassay); format: in vivo, rat
Method: (§1) Studies were made of the effects of the compound of this invention on arginine-induced changes in blood glucose, insulin and glucagon levels and the results obtained were compared with those of somatostatin.
(§2) Male SD rats weighing 300 to 500 g were anesthetized with sodium pentobarbital (60 mg/kg of body weight, by intraabdominal puncture) and polyethylene catheters were placed in their carotid artery. Saline was infused over 10 minutes, and arginine was infused at a rate of 3 g/kg/hr, for 60 minutes, using an infusion pump (at a rate of 4.5 ml/kg/hr). For 30 minutes, immediately after the start of arginine infusion, somatostatin or the compound of this invention was infused at rates of 4 μg/kg/hr, as a basal dose, 40 μg/kg/hr as 10 times as the basal dose, and 400 μg/kg/hr, as 100 times as the basal dose, respectively.
(§3) Before and 15 minutes, 30 minutes and 60 minutes after the start of arginine infusion, blood samples were taken in the presence of heparine. Blood glucose values were measured by the glucose oxidase method, and blood insulin and glucagon values were measured by the radioimmunoassay method.

blood glucagon levels = test: Arginine-induced changes in blood glucagon in rats (radioimmunoassay); format: in vivo, rat
Method: as §1, §2, §3

blood glucose levels = test: Arginine-induced changes in blood glucose in rats (glucose oxidase method); format: in vivo, rat
Method: as §1, §2, §3

mouse = test: Acute toxicity, infusion into the tail vein of a test mouse; format: in vivo
Method: The experiment for determining acute toxicity is carried out by infusing this compound into the tail vein of a test mouse in the amount of 5 mg/kg of body weight.

[1] = Stability in pharmaceutical preparations; format: physicochemical; conditions: when used in pharmaceutical preparations
Solubility in water = format: physicochemical
[2] = rats, arginine 3 g/kg/hr, substance infused for 30 minutes

In the case of C[C@H](N)C(=O)NCC(=O)N[C@H]1CSSC[C@@H](C(=O)O)NC(=O)[C@H](CO)NC(=O)[C@H]([C@@H](C)O)NC(=O)[C@H](Cc2ccccc2)NC(=O)[C@H]([C@@H](C)O)NC(=O)[C@H](CCCCN)NC(=O)[C@H](Cc2c[nH]c3ccccc23)NC(=O)[C@H](Cc2ccccc2)NC(=O)[C@H](Cc2ccccc2)NC(=O)[C@H](CC(N)=O)NC(=O)[C@H](CCCCN)NC1=O [somatostatin], the “effect after the suspension of infusion” value (blood insulin levels; 15 minutes after the suspension of infusion, conclusion on insulin and glucagon) is reported as “its effect was no longer observed”, the “effect on blood insulin level after suspension of infusion” value (blood insulin levels; 45 minutes after start of arginine infusion = 15 minutes after suspension of substance infusion) is reported as “failed to exert its effect” and the “rise in blood insulin levels versus control” value (blood insulin levels; at more than 10 times the basal dose, 15 minutes after start of arginine infusion) is reported as “significantly inhibited”. For the same compound, the “rise in blood insulin levels versus control” value (blood insulin levels; at more than 100 times the basal dose, 30 minutes after start of arginine infusion) was “significantly inhibited”, the “rise in blood insulin levels (insulin secretion) enhanced by arginine” value (blood insulin levels; [2]) was “inhibited the rise in blood insulin levels dose dependently” and the “effect on blood glucagon level” value (blood glucagon levels; 45 minutes after start of arginine infusion) was “lost its effect”. The “blood glucagon level versus control” value (blood glucagon levels; at more than 10 times the basal dose, 15 minutes and 30 minutes after start of arginine infusion) was “significantly lowered its level”, the “blood glucose level versus control” value (blood glucose levels; at 100 times the basal dose (basal 4 μg/kg/hr), 30 minutes after start of arginine infusion) was “Statistically significant low levels of blood glucose” and the “blood glucose level versus control” value (blood glucose levels; at more than 10 times the basal dose (basal 4 μg/kg/hr), 15 minutes after start of arginine infusion) was “Statistically significant low levels of blood glucose”. For the same compound, the “rise in blood glucose levels induced by arginine” value (blood glucose levels; [2]) was “inhibited”.
For C[C@@H](O)[C@@H]1NC(=O)[C@H](CCCCN)NC(=O)[C@@H](Cc2c[nH]c3ccccc23)NC(=O)[C@H](Cc2ccccc2)NC(=O)[C@H](Cc2ccccc2)NC(=O)[C@H](CC(N)=O)NC(=O)[C@H](CCCCN)NC(=O)CCCCC[C@H](C(=O)O)NC(=O)[C@H](CO)NC(=O)[C@H]([C@@H](C)O)NC(=O)[C@H](Cc2ccccc2)NC1=O [the compound of this invention, Des-(Ala^1,Gly^2)-(D-Trp^8,D-Asu^3,14)-somatostatin] (HELM PEPTIDE1{K.N.F.F.[dW].K.T.F.T.S.[O=C(O)[C@@H](CCCCCC(=O)[*:3])N[*:1]]}$PEPTIDE1,PEPTIDE1,1:R1-11:R3$$$V2.0), the “changes or side effects in respect of body weight, body temperature and blood sugar value” (mouse; tail vein infusion, 5 mg/kg of body weight) was “No significant changes or side effects were observed”, the acute toxicity (mouse; tail vein, concluded from the 5 mg/kg experiment) was “considered to be insignificant” and the “stability compared with somatostatin” value [1] was “far superior to somatostatin”. The solubility in water (Solubility in water) was “soluble in water”.
